Values of other authors, collected in US20150320893A1, “TREATMENT OF LATENT HIV INFECTION” (priority 2012, published 2015).

Test system: latent virus in harboring cells
Details: by manipulating the PKC pathway(s) within the cell

| SMILES | ability to induce latent viral replication |
| --- | --- |
| CCC/C=C/C=C/C(=O)O[C@H]1/C(=C/C(=O)OC)C[C@H]2C[C@H]([C@@H](C)O)OC(=O)C[C@H](O)C[C@@H]3C[C@H](OC(C)=O)C(C)(C)[C@](O)(C[C@@H]4C/C(=C/C(=O)OC)C[C@H](/C=C/C(C)(C)[C@]1(O)O2)O4)O3 [bryostatin-1, bryostatin 1] | induce latent viral replication without encouraging cell cycle progression |
| CC(=O)O[C@@]12C[C@@H](C)[C@@]3(O)[C@@H](C=C(CO)C[C@]4(O)C(=O)C(C)=C[C@@H]34)[C@@H]1C2(C)C [Prostratin] | induce latent viral replication without encouraging cell cycle progression |
